Legend:
[1] = system: N-STZ-1.5 rat (model of type 2 diabetes with sulfonylurea secondary failure); experiment: Oral glucose loading in N-STZ-1.5 rats with sulfonylurea secondary failure (Experimental Example 1); assay type: in vivo; settings: for Increment of plasma insulin level: rats pretreated with glibenclamide for 4 weeks; for plasma glucose level-lowering effect (in words) / plasma insulin level-elevating effect (in words): type 2 diabetic rat with sulfonylurea secondary failure; for plasma glucose level-lowering effect (in words): summary of Table 1; for plasma insulin level-elevating effect (in words): summary of Table 2 and Table 3
Method: (§1) Streptozocin (STZ) (120 mg/kg bodyweight) was administered to a 1.5-day-old male WKY rat to obtain a type 2 diabetes model, N-STZ-1.5 rat.
N-STZ-1.5 rats (male, 24 animals) received orally glibenclamide (10 mg/kg bodyweight/day) for 4 weeks to become a model of type 2 diabetes with sulfonylurea secondary failure. Then, the rats were divided into 4 groups of Groups A to D (6 animals each).
Then, each rat received orally 1 g/kg bodyweight of glucose solution. Before administration of glucose (before and after administration of the test compound) and 10 and 60 minutes after administration of glucose solution, blood samples were taken from the caudal vein of the rat and then the plasma glucose level and the plasma insulin level were determined.
The plasma glucose level was determined by an enzymatic method using L type WakoGlu2 (trade name, Wako Pure Chemical Industries, Ltd.), and the plasma insulin level was determined by radioimmunoassay using Shionoria Insulin Kit (trade name, Shionogi & Co., Ltd.).
The increment of plasma glucose level 60 minutes after administration of glucose solution (from 0 to 60 minutes after sugar loading); the increment of plasma insulin level 10 minutes after administration of glucose solution (from before administration of the test compound to 10 minutes after sugar loading); and the increment of plasma insulin level 10 minutes after administration of glucose solution (from 0 to 60 minutes after sugar loading) are shown in Table 1, Table 2 and Table 3, respectively. The values in the tables are mean values (n=6).

[2] = system: N-STZ-1.5 rat (type 2 diabetes model); experiment: Oral glucose loading in N-STZ-1.5 rats after 4 weeks of methylcellulose (Group M) or glibenclamide (Group G) (Experimental Example 2); assay type: in vivo; settings: for Increment of plasma insulin level / Increment of plasma glucose level: oral glibenclamide 10 mg/kg, mean, n=6; for Increment of plasma insulin level: 10 minutes after oral glucose 1 g/kg (from 0 to 60 minutes after sugar loading); for Increment of plasma glucose level: 60 minutes after oral glucose 1 g/kg; for plasma glucose level-lowering effect (in words): summary of Table 4; for plasma insulin level-elevating effect (in words): summary of Table 5
Method: as §1
N-STZ-1.5 rats (male, 24 animals) prepared in Experimental Example 1 were divided into 4 groups (6 animals each), of which 2 groups (hereinafter sometimes referred to as Group M) and the remaining 2 groups (hereinafter sometimes referred to as Group G) received orally a 0.5% methylcellulose suspension and glibenclamide (10 mg/kg bodyweight) respectively, for 4 weeks. After repeated administration for 4 weeks, one Group M and one Group G (control groups) received orally a 0.5% methylcellulose suspension and the other Group M and the other Group G received orally glibenclamide (10 mg/kg bodyweight).
Then, each rat received orally 1 g/kg bodyweight of glucose solution. Before administration of glucose solution and 10 and 60 minutes after the administration, blood samples were taken from the caudal vein of the rat and then the plasma glucose level and the plasma insulin level were determined.
The plasma glucose level and the plasma insulin level were determined in the same manner as in Experimental Example 1.
The increment of plasma glucose level 60 minutes after administration of glucose solution (from 0 to 60 minutes after sugar loading) and the increment of plasma insulin level 10 minutes after administration of glucose solution (from 0 to 60 minutes after sugar loading) are shown in Table 4 and Table 5, respectively. The values in the tables are mean values (n=6).

[3] = 10 minutes after oral glucose 1 g/kg (from before administration of the test compound to 10 min after sugar loading), oral glibenclamide 10 mg/kg, nateglinide 50 mg/kg, Compound A 3 mg/kg, mean, n=6
[4] = Group G (glibenclamide 10 mg/kg for 4 weeks)
[5] = Group M (0.5% methylcellulose for 4 weeks)

SMILES | Increment of plasma insulin level ([1]; 10 minutes after oral glucose 1 g/kg (from 0 to 60 minutes after sugar loading), oral glibenclamide 10 mg/kg, nateglinide 50 mg/kg, Compound A 3 mg/kg, mean, n=6) | Increment of plasma insulin level [1, 3] | Increment of plasma glucose level ([1]; 60 minutes after oral glucose 1 g/kg (0 to 60 min after sugar loading), rats pretreated with glibenclamide 10 mg/kg/day for 4 weeks, oral glibenclamide 10 mg/kg, nateglinide 50 mg/kg, Compound A 3 mg/kg, mean, n=6) | plasma glucose level-lowering effect (in words) [1] | plasma insulin level-elevating effect (in words) [1] | Increment of plasma insulin level [2, 4] | Increment of plasma glucose level [2, 4] | plasma glucose level-lowering effect (in words) ([2]; Group G) | plasma insulin level-elevating effect (in words) ([2]; Group G) | Increment of plasma insulin level [2, 5] | Increment of plasma glucose level [2, 5] | plasma glucose level-lowering effect (in words) ([2]; Group M) | plasma insulin level-elevating effect (in words) ([2]; Group M)
CC(C)[C@H]1CC[C@H](C(=O)N[C@H](Cc2ccccc2)C(=O)O)CC1 [nateglinide] | 16.78 μU/ml | 18.76 μU/ml | 185.95 mg/dL | no plasma glucose level-lowering effect | hardly plasma insulin level-elevating effect | – | – | – | – | – | – | – | –
COc1ccc(Cl)cc1C(=O)NCCc1ccc(S(=O)(=O)NC(=O)NC2CCCCC2)cc1 [glibenclamide] | – | 18.03 μU/ml | – | no plasma glucose level-lowering effect | hardly plasma insulin level-elevating effect | 22.76 μU/ml | 180.65 mg/dL | the effect was not shown | the effect was not shown | 49.70 μU/ml | 51.72 mg/dL | showed plasma glucose level-lowering effect | showed plasma insulin level-elevating effect

— patent US20070072810A1, “Agent for treating diabetes” (Takeda Pharmaceutical Company, Limited, priority 2003, published 2007)
